Reference: PubChem BioAssay AID1919000 (Molecular Pharmacology Branch, DTP, NCI, 2023)
“And” between values parts separate entries of the source, which are not always exact repeats. Equal values may be shown once.

Test system: 653999-131-R-J2-PDC complex spheroids, growth % test/control
Assay: Anticancer human tumor 653999-131-R-J2-PDC patient-derived lung adenocarcinoma cell line growth inhibition [AhR]
Details: for viability, T/C: stronger effect = lower value
Summary of the method: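 Agents were dosed in half-log steps down from roughly clinical Cmax, or from 10 microM where Cmax was unknown, alone and with AhR antagonists. Read-out: percent test/control growth of tumor spheroids containing HUVEC and MSC stromal cells.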

[1] = curve of first compound, second compound 0.1 µM
[2] = curve of first compound, second compound 0.316 µM
[3] = curve of first compound, second compound 1 µM
[4] = curve of first compound, second compound 3.16 µM
[5] = curve of first compound, second compound 10 µM
[6] = second compound 0.1 µM, first compound 0.000949 µM
[7] = second compound 0.1 µM, first compound 0.003 µM
[8] = second compound 0.1 µM, first compound 0.00949 µM
[9] = second compound 0.1 µM, first compound 0.03 µM
[10] = second compound 0.1 µM, first compound 0.0949 µM
[11] = second compound 0.1 µM, first compound 0.3 µM
[12] = second compound 0.316 µM, first compound 0.000949 µM
[13] = second compound 0.316 µM, first compound 0.003 µM
[14] = second compound 0.316 µM, first compound 0.00949 µM
[15] = second compound 0.316 µM, first compound 0.03 µM
[16] = second compound 0.316 µM, first compound 0.0949 µM
[17] = second compound 0.316 µM, first compound 0.3 µM
[18] = second compound 1 µM, first compound 0.000949 µM
[19] = second compound 1 µM, first compound 0.003 µM
[20] = second compound 1 µM, first compound 0.00949 µM
[21] = second compound 1 µM, first compound 0.03 µM
[22] = second compound 1 µM, first compound 0.0949 µM
[23] = second compound 1 µM, first compound 0.3 µM
[24] = second compound 3.16 µM, first compound 0.000949 µM
[25] = second compound 3.16 µM, first compound 0.003 µM
[26] = second compound 3.16 µM, first compound 0.00949 µM
[27] = second compound 3.16 µM, first compound 0.03 µM
[28] = second compound 3.16 µM, first compound 0.0949 µM
[29] = second compound 3.16 µM, first compound 0.3 µM
[30] = second compound 10 µM, first compound 0.000949 µM
[31] = second compound 10 µM, first compound 0.003 µM
[32] = second compound 10 µM, first compound 0.00949 µM
[33] = second compound 10 µM, first compound 0.03 µM
[34] = second compound 10 µM, first compound 0.0949 µM
[35] = second compound 10 µM, first compound 0.3 µM
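Further: spheroids exposed to agents for seven days.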
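Wherever viability, T/C is given: 100% = DMSO vehicle control viability.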

Row | SMILES | IC50 [1] [nM] | IC50 [2] [nM] | IC50 [3] [nM] | IC50 [4] [nM] | IC50 [5] [nM] | viability, T/C [6] [%] | viability, T/C [7] [%] | viability, T/C [8] [%] | viability, T/C [9] [%] | viability, T/C [10] [%] | viability, T/C [11] [%] | viability, T/C [12] [%] | viability, T/C [13] [%] | viability, T/C [14] [%] | viability, T/C [15] [%] | viability, T/C [16] [%] | viability, T/C [17] [%] | viability, T/C [18] [%] | viability, T/C [19] [%] | viability, T/C [20] [%] | also measured
1 | Nc1ncn(C2CC(O)C(CO)S2)c(=O)n1 (stereo not given) + Cc1cncc(-c2nc(NCCc3c[nH]c4ccccc34)c3ncn(C(C)C)c3n2)c1 | > 300 | > 300 | > 300 | > 300 | > 300 | 106 | 95.4 | 93.7 | 90.4 | 93.2 | 82.5 | 102 | 99.8 | 101 | 94.3 | 88.7 | 85.7 | 106 | 111 | 121 | viability, T/C [21]: 109%; viability, T/C [22]: 106%; viability, T/C [23]: 103%; viability, T/C [24]: 84.1%; viability, T/C [25]: 87.8%; viability, T/C [26]: 93.4%; viability, T/C [27]: 84.7%; viability, T/C [28]: 66.5%; viability, T/C [29]: 73%; viability, T/C [30]: 65%; viability, T/C [31]: 50.9%; viability, T/C [32]: 58%; viability, T/C [33]: 44%; viability, T/C [34]: 53%; viability, T/C [35]: 52.7%
2 | CC(C)CC(NC(=O)C(Cc1ccccc1)NC(=O)c1cnccn1)B(O)O (stereo not given) + CC(CO)NC(=O)c1cc(-c2ccc(Cl)cc2)nn(-c2cnn(C)c2)c1=O | 14.1 | 13.4 | 15.4 | 15.7 | 16.4 | 108 | 116 | 65.1 | 20.3 | 9.49 | 3.53 | 111 | 121 | 64.6 | 17.8 | 11.5 | 2.06 | 101 | 122 | 73.4 | viability, T/C [21]: 19.5%; viability, T/C [22]: 14.9%; viability, T/C [23]: 4.87%; viability, T/C [24]: 121%; viability, T/C [25]: 120%; viability, T/C [26]: 73.3%; viability, T/C [27]: 20.1%; viability, T/C [28]: 12.1%; viability, T/C [29]: 4.74%; viability, T/C [30]: 99.5%; viability, T/C [31]: 117%; viability, T/C [32]: 74.5%; viability, T/C [33]: 22.1%; viability, T/C [34]: 12.8%; viability, T/C [35]: 2.47%
3 | CCc1c2c(nc3ccc(O)cc13)-c1cc3c(c(=O)n1C2)COC(=O)[C@]3(O)CC + CC(CO)NC(=O)c1cc(-c2ccc(Cl)cc2)nn(-c2cnn(C)c2)c1=O | 7.43 | 5.82 | 6.93 | 5.13 | 4.97 | 68 | 59 | 48.4 | 32 | 21.5 | 12.7 | 64.1 | 58.8 | 42.3 | 34 | 19.4 | 11.4 | 67 | 60 | 45.4 | viability, T/C [21]: 33.7%; viability, T/C [22]: 21.2%; viability, T/C [23]: 13.8%; viability, T/C [24]: 50.2%; viability, T/C [25]: 50.8%; viability, T/C [26]: 49.9%; viability, T/C [27]: 29.1%; viability, T/C [28]: 22.1%; viability, T/C [29]: 15.8%; viability, T/C [30]: 63.2%; viability, T/C [31]: 55.8%; viability, T/C [32]: 42.9%; viability, T/C [33]: 30%; viability, T/C [34]: 21.8%; viability, T/C [35]: 16.1%
4 | Cc1ccccc1N=Nc1ccc(NC(=O)c2ccnn2C)c(C)c1 |  |  |  |  |  |  |  |  |  |  |  |  |  |  |  |  |  |  |  |  | viability, T/C (compound 0.1 µM): 96.6% [middle of 19 runs]; viability, T/C (compound 1 µM): 95.3% [middle of 20 runs]; IC50 (compound alone, run of 06/14/2022): > 10000 nM
5 | CC1COCCN1c1cc(-c2ccnn2C)c2ccnc(-c3ccn[nH]3)c2n1 (stereo not given) |  |  |  |  |  |  |  |  |  |  |  |  |  |  |  |  |  |  |  |  | viability, T/C (compound 0.00316 µM): 97.3% and 102% and 106%; viability, T/C (compound 0.01 µM): 92.7% and 98.5% and 104%; viability, T/C (compound 0.0316 µM): 77.3% and 77.9% and 90.3%; viability, T/C (compound 0.1 µM): 58.7% and 58.6% and 62.5%; viability, T/C (compound 0.316 µM): 32.9% and 34% and 41.3%; viability, T/C (compound 1 µM): 24% and 30.5% and 29.1%; IC50 (curve of compound): 141 nM and 142 nM and 194 nM
6 | Nc1ncn(C2CC(O)C(CO)S2)c(=O)n1 (stereo not given) + Cc1ccccc1N=Nc1ccc(NC(=O)c2ccnn2C)c(C)c1 | > 300 | > 300 | > 300 | > 300 | > 300 | 96.4 | 98.8 | 98.2 | 101 | 95.3 | 85.8 | 98.6 | 105 | 105 | 105 | 92.8 | 95.4 | 107 | 102 | 109 | viability, T/C [21]: 109%; viability, T/C [22]: 88.2%; viability, T/C [23]: 88.7%; viability, T/C [24]: 102%; viability, T/C [25]: 100%; viability, T/C [26]: 95.1%; viability, T/C [27]: 94.4%; viability, T/C [28]: 95.8%; viability, T/C [29]: 82%; viability, T/C [30]: 101%; viability, T/C [31]: 103%; viability, T/C [32]: 110%; viability, T/C [33]: 95.6%; viability, T/C [34]: 107%; viability, T/C [35]: 103%
